Values of other authors in patent US20110230399A1, “Methods for Treating Obesity Related Disease” (priority 2008, published 2011).

Experiments:
[1] = in vivo
[2] = system: hypothalamic slices; settings: in vitro

NPY13-36: Neuropeptide Y fragment 13-36; full agonist at the Y2 receptor
stimulation of food intake [1]: does not stimulate food intake
NPY release from hypothalamic slices [2]: inhibits NPY release
